# Laboratory results reported in patent publication US20010051630A1, “Use of hydroxylamine derivatives, and method and preparations for increasing the tolerance of field crops against weather stresses” (priority 1997, published 2001).
# Marks after values point to notes of the source that are not given here.
# Legend:
# [1] = test system: Mo 17 inbred maize line; assay: CSVT (Complex Stressing Vigour Test), seeds soaked in active agent, Mo 17 maize; type: in vivo; settings: seeds soaked in 10 mg/l active agent, * = significant vs control P < 0.05
# Procedure: (§1) In this experiment the tolerance of maize, soybean and pepper seeds treated with the active agent against cold was tested. This test imposed temperature and oxygen deficiency stresses on the seeds and was carried out according to Barla-Szabó and Dolinka CSVT (Complex Stressing Vigour Test). For a single test, two hundred seeds were soaked for 48 hours at 25° C. and another 48 hours at 5° C in 150 ml distilled water containing the active agent in 10 mg/l concentration. Following the 96 hours of soaking, the seeds were further germinated between rolled wet paper for 96 hours at 25° C. There were 25 seeds in each roll, the rolls were placed vertically into containers and covered with a plastic bag in order to reduce evaporation. During the whole procedure the seeds were kept in darkness. At the end of the experiment the number of normally developing and ungerminated seeds were recorded. The length of the normal seedlings was measured and the average length of the five longest seedlings was calculated. Seedlings longer than 0.33 times the average length of the five longest seedlings were considered to be of high vigour, and low vigour seedlings were shorter than this length.
# [2] = test system: maize of low chilling tolerance (LT) population; assay: CSVT, maize population of low chilling tolerance (LT); type: in vivo
# Procedure: as §1, with “darkness.” for “darkness. At the end of the experiment the number of normally developing and ungerminated seeds were recorded. The length of the normal seedlings was measured and the average length of the five longest seedlings was calculated. Seedlings longer than 0.33 times the average length of the five longest seedlings were considered to be of high vigour, and low vigour seedlings were shorter than this length.”
# (§2) At the end of the experiment the number of normally developing and ungerminated seeds were recorded. The length of the normal seedlings was measured and the average length of the five longest seedlings was calculated. Seedlings longer than 0.33 times the average length of the five longest seedlings were considered to be of high vigour, and low vigour seedlings were shorter than this length.
# (§3) In the case of a further experiment with maize of low chilling tolerance (LT) and high chilling tolerance (HT) populations [Ref: P. Landi, E. Frascaroli, A. Lovato; EUPHYTICA 64 21-29 (1992)], the following positive effects were found (Table 3.).
# [3] = test system: McCall soybeans; assay: CSVT with PVA-pearled McCall soybeans, relative length; type: in vivo, soybean; settings: 2.5 mg in 1 ml 2.5% PVA per 100 seeds
# Procedure: as §1, with “darkness.” for “darkness. At the end of the experiment the number of normally developing and ungerminated seeds were recorded. The length of the normal seedlings was measured and the average length of the five longest seedlings was calculated. Seedlings longer than 0.33 times the average length of the five longest seedlings were considered to be of high vigour, and low vigour seedlings were shorter than this length.”
# In a further CSVT experiment also using McCall soybeans, polyvinylalcohol (PVA) was applied for pearling the seeds. The 2.5 mg doses of the active agents were dissolved in 1 ml of 2.5% PVA solution, and this quantity was applied to 100 pieces of seeds. The improvement of the chilling tolerance is observed by the significant elongation of the germ and the roots.
# [4] = test system: maize of high chilling tolerance (HT) population; assay: CSVT, maize population of high chilling tolerance (HT); type: in vivo
# Procedure: as §1, with “darkness.” for “darkness. At the end of the experiment the number of normally developing and ungerminated seeds were recorded. The length of the normal seedlings was measured and the average length of the five longest seedlings was calculated. Seedlings longer than 0.33 times the average length of the five longest seedlings were considered to be of high vigour, and low vigour seedlings were shorter than this length.”
# as §2, §3
# [5] = test system: soybean cv. Bólyi 44; assay: Field soybean cultivation, yield; type: in vivo; settings: for Weight of the crop (kg/m^2): seeds pearled with 1 mg active agent in 1 ml 5% PVA per 100 seeds; for Improvement compared to the control (%): weight of the crop
# Procedure: The experiment was performed using soybean cv. Bólyi 44. Before sowing, the seeds were treated with Rhyzobium Japonicum nitrogen-binding bacterium, which forms a root nodule providing 50-70% of the nitrogen demand of the plant.
# The examined compounds were applied by pearling the seeds; 1 ml of pearling agent containing 1 mg of active agent in a 5% aqueous PVA solution was used for 100 seeds.
# The plants were sown after soil preparation in the autumn, using a crop rotation system, 3-5 cm deep in the ground, with a 45-50 cm row distance, a 5 cm plant distance and 450,000-500,000 plant/ha density. The date of sowing was Apr. 15, 1997. During the development of the plant, the usual cultivation procedures were followed and the usual pesticides were used. The harvest took place in September-October, with the water content of the grains being between 16-18%.
# [6] = test system: Mo 17 maize inbred line; assay: Chilling tolerance of maize in a gradient chamber; type: in vivo
# Procedure: The experiment was performed using the Mo 17 maize inbred line. The seeds were coated with a 2% solution of the examined compound dissolved in 2 ml polyvinylalcohol before germination, where the above quantity of solution is applied for 100 seeds. The seeds were germinated for 3 days wrapped in wet filter paper, they were sown and then cultivated in gradient chamber for 6 weeks. In the gradient chamber, the temperature was maintained on a scale between 18 and 12° C., with differences of 1° C. This was followed by a one week regeneration at 23/20° C. temperature.
# In the experiment, the length of the plants was measured 16, 31 and 43 days after the sowing, and at the end of the experiment the fresh weight of the plants was measured. The experiment was performed on 4 plants at each temperature and by each treatment.
# [7] = test system: Seaway bean cultivar; assay: Drought tolerance of beans, part a (5 days hardening); type: in vivo; settings: 7 days without water, one week regeneration
# From the text: Based on the experiences of our preliminary experiments, the plants were hardened before the application of the active agent by withholding the water for a few days, until the first signs of withering appeared. Then the plants were watered and the active agent was either dissolved in the water, or sprayed to the plants directly. Afterwards, the plants were subjected to different periods of drought according to the given experiment, watered again, and after a week-long regeneration period, the survival ratio was determined.
# a) Seaway bean cultivar was hardened for 5 days by withholding the water. Afterwards the plantlets were watered for two days normally. During this time, a 10 mg/liter and 100 mg/liter concentration solution of the active agent was applied two times a day dissolved in water or by direct spraying. Then the water was withheld for 7 days, and after a week-long regeneration period, the survival ratio was determined.
# [8] = test system: HMv09 inbred maize line; assay: CSVT, seeds soaked in active agent, HMv09 maize; type: in vivo; settings: seeds soaked in 10 mg/l active agent
# Procedure: as §1
molecule,measurement,setting,value
"CCCCCCCCCCCCCCCC(=O)OC(CONC(=N)c1cccnc1)CN1CCCCC1.Cl (stereo not shown) [Compound 2, N-[2-palmitoyloxy-3-(1-piperidinyl)propoxy]-3-pyridinecarboximidamide Monohydrochloride]",Ratio of high vigour plants (%),[1],47* %
same,"Ratio of high vigour plants %, LT",[2],86* %
same,"Relative length (control = 100), germ",[3],133
same,"Relative length (control = 100), root",[3],150
same,"Ratio of high vigour plants %, HT",[4],92* %
"Cl.O=[N+]([O-])c1ccccc1C(Cl)=NOCC(O)CN1CCCCC1 (stereo not shown) [Compound 4, N-[2-hydroxy-3-(1-piperidinyl)propoxy]-2′-nitro-benzenecarboximidoyl Chloride Monohydrochloride]",Ratio of high vigour plants (%),[1],32* %
same,Weight of the crop (kg/m^2),[5],0.50 kg/m^2
same,Improvement compared to the control (%),[5],11.1%
same,"Ratio of high vigour plants %, LT",[2],92* %
same,"Relative length (control = 100), germ",[3],116
same,"Relative length (control = 100), root",[3],135
same,"Ratio of high vigour plants %, HT",[4],96* %
same,Length (cm),"[6]; 12° C., 16 days",5.8 cm
same,Length (cm),"[6]; 12° C., 31 days",11.3 cm
same,"FW (g), fresh weight","[6]; 12° C., 43 days",1.5 g
same,Length (cm),"[6]; 12° C., 43 days",20.1 cm
same,Length (cm),"[6]; 13° C., 16 days",7.4 cm
same,Length (cm),"[6]; 13° C., 31 days",13.1 cm
same,"FW (g), fresh weight","[6]; 13° C., 43 days",2.1 g
same,Length (cm),"[6]; 13° C., 43 days",23.8 cm
same,Length (cm),"[6]; 14° C., 16 days",9.7 cm
same,Length (cm),"[6]; 14° C., 31 days",17.2 cm
same,"FW (g), fresh weight","[6]; 14° C., 43 days",2.9 g
same,Length (cm),"[6]; 14° C., 43 days",25.1 cm
same,Length (cm),"[6]; 15° C., 16 days",10.2 cm
same,Length (cm),"[6]; 15° C., 31 days",21.3 cm
same,"FW (g), fresh weight","[6]; 15° C., 43 days",4.4 g
same,Length (cm),"[6]; 15° C., 43 days",32.3 cm
same,Length (cm),"[6]; 16° C., 16 days",15.4 cm
same,Length (cm),"[6]; 16° C., 31 days",26.8 cm
same,"FW (g), fresh weight","[6]; 16° C., 43 days",5.0 g
same,Length (cm),"[6]; 16° C., 43 days",34.5 cm
same,Length (cm),"[6]; 17° C., 16 days",19.7 cm
same,Length (cm),"[6]; 17° C., 31 days",31.2 cm
same,"FW (g), fresh weight","[6]; 17° C., 43 days",6.6 g
same,Length (cm),"[6]; 17° C., 43 days",37.3 cm
same,Length (cm),"[6]; 18° C., 16 days",15.0 cm
same,Length (cm),"[6]; 18° C., 31 days",28.4 cm
same,"FW (g), fresh weight","[6]; 18° C., 43 days",6.2 g
same,Length (cm),"[6]; 18° C., 43 days",38.0 cm
"CC(C)(C)NCC(O)CONC(=Nc1ccccc1)c1ccccc1.Cl (stereo not shown) [Compound 5, N-[[3-(1,1-dimethylethyl)-amino]-2-hydroxypropoxy]-N′-phenyl-benzamidine hydrochloride]",Ratio of high vigour plants (%),[1],35* %
same,Weight of the crop (kg/m^2),[5],0.52 kg/m^2
same,Improvement compared to the control (%),[5],15.5%
same,"survival (%), Watering (10 mg/l)",[7],25* %
same,"survival (%), Watering (100 mg/l)",[7],36* %
same,"Relative length (control = 100), germ",[3],127
same,"Relative length (control = 100), root",[3],152
same,Length (cm),"[6]; 12° C., 16 days",4.5 cm
same,Length (cm),"[6]; 12° C., 31 days",10.9 cm
same,"FW (g), fresh weight","[6]; 12° C., 43 days",2.0 g
same,Length (cm),"[6]; 12° C., 43 days",25.5 cm
same,Length (cm),"[6]; 13° C., 16 days",4.7 cm
same,Length (cm),"[6]; 13° C., 31 days",10.0 cm
same,"FW (g), fresh weight","[6]; 13° C., 43 days",1.1 g
same,Length (cm),"[6]; 13° C., 43 days",18.5 cm
same,Length (cm),"[6]; 14° C., 16 days",5.8 cm
same,Length (cm),"[6]; 14° C., 31 days",11.6 cm
same,"FW (g), fresh weight","[6]; 14° C., 43 days",1.3 g
same,Length (cm),"[6]; 14° C., 43 days",20.3 cm
same,Length (cm),"[6]; 15° C., 16 days",9.5 cm
same,Length (cm),"[6]; 15° C., 31 days",22.2 cm
same,"FW (g), fresh weight","[6]; 15° C., 43 days",5.4 g
same,Length (cm),"[6]; 15° C., 43 days",34.0 cm
same,Length (cm),"[6]; 16° C., 16 days",12.4 cm
same,Length (cm),"[6]; 16° C., 31 days",26.4 cm
same,"FW (g), fresh weight","[6]; 16° C., 43 days",7.7 g
same,Length (cm),"[6]; 16° C., 43 days",42.3 cm
same,Length (cm),"[6]; 17° C., 16 days",17.8 cm
same,Length (cm),"[6]; 17° C., 31 days",29.9 cm
same,"FW (g), fresh weight","[6]; 17° C., 43 days",9.7 g
same,Length (cm),"[6]; 17° C., 43 days",44.3 cm
same,Length (cm),"[6]; 18° C., 16 days",14.6 cm
same,Length (cm),"[6]; 18° C., 31 days",25.0 cm
same,"FW (g), fresh weight","[6]; 18° C., 43 days",7.6 g
same,Length (cm),"[6]; 18° C., 43 days",39.0 cm
same,Ratio of high vigour plants (%),[8],57* %
"CNC(=NOCCCN1CCCCC1)N(C)c1ccccc1.Cl [Compound 6, N-N′-dimethyl-N′-phenyl-N″-[3-(1-piperidinyl)propoxy]-guanidine hydrochloride]",Ratio of high vigour plants (%),[1],36* %
"CCCCCCN(OCC(O)CN1CCCCC1)C(N)=O (stereo not shown) [Compound 8, N-hexyl-N-[2-hydroxy-3-(1-piperidinyl)propoxyl]-urea]",Ratio of high vigour plants (%),[1],23* %
"CN(C)C(=NOCC(O)CN1CCCCC1)Nc1ccccc1.Cl (stereo not shown) [Compound 9, N,N-dimethyl-N′-phenyl-N″-[2-hydroxy-3-(1-piperidinyl)propoxy]-guanidine hydrochloride]",Ratio of high vigour plants (%),[8],56* %
"Cl.ClC(=NOCCCN1CCCCC1)c1cccs1 [Compound 10, N-[3-(1-piperidinyl)propoxy]-thiophene-2-carboximidoylchloride hydrochloride]",Ratio of high vigour plants (%),[8],45* %
"Cl.c1ccc(N=C(NOCCCN2CCCCC2)c2ccccc2)cc1 [Compound 11, N-[3-(1-piperidinyl)propoxy]-N′-phenyl-benzamidine hydrochloride]",Ratio of high vigour plants (%),[8],53* %
N-[2-hydroxy-3-(1-piperidinyl)propoxy]-ethylurethane [Compound 7],Ratio of high vigour plants (%),[1],24%
